{
  "source": "paper PMC7274539",
  "about": "“The selective glucocorticoid receptor antagonist CORT125281 has tissue-specific activity” (The Journal of Endocrinology, 2020)",
  "key": {"[1]": {"biological_target": "T1, human GR ligand-binding domain (Homo sapiens, UniProt P04150)", "T1 construct": "purchased Invitrogen PV4689", "T1 sequence (P04150 524-758 limits assumed)": "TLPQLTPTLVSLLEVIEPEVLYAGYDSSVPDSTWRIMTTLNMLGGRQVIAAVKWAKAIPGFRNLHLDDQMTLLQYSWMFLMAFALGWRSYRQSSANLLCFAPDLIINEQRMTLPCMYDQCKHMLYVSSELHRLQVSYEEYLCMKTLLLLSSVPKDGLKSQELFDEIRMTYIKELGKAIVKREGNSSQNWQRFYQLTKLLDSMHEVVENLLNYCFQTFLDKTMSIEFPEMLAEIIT", "experiment": "MARCoNI peptide interaction profiling (coregulator-nuclear receptor interaction)", "format": "biochemical", "details": "for interactions at a number of motifs (dexamethasone-exclusive cluster): 1 µM; for ligand-induced interaction at the majority of coregulator motifs: cortisol 1 µM, dexamethasone 1 µM", "method": "As the assay utilizes human GR, experiments were performed with cortisol rather than corticosterone. […] Incubation was performed at 20°C in a PamStation96 (PamGene International, Den Bosch, Netherlands) for 40 min. Receptor binding to each peptide on the array, reflected by a fluorescent signal, was quantified by analysis of .tiff images using BioNavigator software (PamGene International)."}, "male C57Bl/6J mice": {"test_system": "male C57Bl/6J mice", "experiment": "Subchronic corticosterone exposure (pellet): body composition, organ weights, leukocytes, plasma insulin, glucose, lipids", "format": "in vivo", "method": "(§1) All studies involving animals were approved by the institutional ethics committee on animal care and experimentation at the Leiden University Medical Center. The 8-week old male C57Bl/6J mice (Charles River) were housed in ventilated cages with a 12 h light:12 h darkness regime and ad libitum access to food and water. In the acute corticosterone exposure experiments, mice received a synthetic chow diet (Research Diets, New Brunswick, NJ, USA) containing vehicle or CORT125281 (6, 20 or 60 mg/kg/day, Corcept Therapeutics, Menlo Park, CA, USA) for 6 days. […] Mice were treated daily with vehicle, 60 mg/kg mifepristone (Corcept Therapeutics) or 60 mg/kg CORT125281 (dissolved in PBS with 0.1% Tween 80 and 0.5% hydroxypropylmethylcellullose, Corcept Therapeutics) via oral gavage for 5 days, after which mice were killed by CO2 inhalation. Throughout the experiment, body weight was monitored and body composition was determined with EchoMRI™ (Frankfurt, Germany). After 5 days, blood was collected from the lateral tail vain in paraoxon-coated capillaries after a 6-h fast. Plasma triglyceride, total cholesterol, free fatty acid, glucose and insulin levels were determined using commercially available kits (Roche; Instruchemie, Delfzijl, Netherlands and Crystal Chem, Zaandam, Netherlands). Blood concentrations of the major leukocyte classes, that is, lymphocytes, monocytes and eosinophils, were determined in whole blood using an automatic veterinary hematology analysis (Sysmex XT-2000iV; Goffin Meyvis, Etten-Leur, the Netherlands).\n(§2) In both acute and subchronic corticosterone experiments, relevant tissues (including quadriceps muscle, interscapular BAT, gonadal white adipose tissue (WAT), adrenals, spleen, thymus, pituitary and hippocampus) were collected to determine tissue weight and/or for further molecular analysis."}, "[2]": {"test_system": "GR transcriptional activity", "experiment": "Subchronic corticosterone exposure: RT-qPCR of GR and insulin target genes in tissues", "format": "in vivo, C57Bl/6J mice", "method": "as §1, §2\n(§3) Total RNA was isolated from snap-frozen tissues using TriPure isolation reagent (Roche). After reverse transcription to cDNA (Promega), RT-qPCR was performed using IQ SYBR-Green supermix and MyIQ thermal cycler (Bio-RAD CFX96). Primers were tested for high efficiency (90–110%) and for amplification of a single PCR product. All primer sequences are listed in Supplementary Table 1 (see section on supplementary materials given at the end of this article), with the exception of Ncor1 and Ncor2 which were purchased from Qiagen. Fold change expression was calculated using the 2^−ΔΔ^CT method."}, "GR [3]": {"test_system": "GR", "parameters": "method as in Lahteenmaki et al. 1987, Kroon et al. 2018", "details": "half maximal inhibitory concentration of the GR antagonist; ref Lahteenmaki et al. 1987, Kroon et al. 2018; cited from earlier work"}, "progesterone receptor": {"test_system": "progesterone receptor", "parameters": "method as in earlier work", "details": "ref Jung-Testas & Baulieu 1983, Gaillard et al. 1984, Kloosterboer et al. 1995, Kroon et al. 2018; cited from earlier work"}, "GR [4]": {"test_system": "GR", "details": "mifepristone; ref Havel et al. 1996, van den Heuvel et al. 2016, Kroon et al. 2018; cited from earlier work"}, "HPA-axis activity": {"test_system": "HPA-axis activity", "parameters": "method as in Kroon et al. 2018", "details": "chronic administration via the food; ref Kroon et al. 2018; cited from earlier work"}, "androgen receptor": {"test_system": "androgen receptor", "details": "ref Jung-Testas & Baulieu 1983, Gaillard et al. 1984, Kloosterboer et al. 1995, Kroon et al. 2018; cited from earlier work"}, "[5]": {"test_system": "GR transcriptional activity", "experiment": "Acute corticosterone exposure or basal conditions: RT-qPCR of GR target genes in tissues", "format": "in vivo, C57Bl/6J mice", "details": "corticosterone 1.5 mg/kg s.c., 1 h; liver, muscle, BAT, WAT, hippocampus; except Sgk1 in muscle, hippocampus and Mt2a in hippocampus", "method": "as §1, §2, §3"}, "[6]": {"details": "mifepristone 0.1 µM, CORT125281 1 µM"}, "[7]": {"details": "corticosterone pellet 5 days, 60 mg/kg/day oral gavage"}, "[8]": {"details": "corticosterone pellet 12.5 mg, 5 days, no antagonist"}},
  "data": [
    {"compound": "CC#C[C@]1(O)CC[C@H]2[C@@H]3CCC4=CC(=O)CCC4=C3[C@@H](c3ccc(N(C)C)cc3)C[C@@]21C", "note": "[mifepristone]", "values": [
      {"measurement": "binding of corepressor motifs of NCOR1 and NCOR2 (SMRT) by ligand-GR complex", "setting": "[1]; [6]", "value": "strongly bound"},
      {"measurement": "HOMA-IR", "setting": "male C57Bl/6J mice; [7]", "value": "improved"},
      {"measurement": "corticosterone-induced decrease of spleen weight", "setting": "male C57Bl/6J mice; [7]", "value": "prevented"},
      {"measurement": "corticosterone-induced fat mass", "setting": "male C57Bl/6J mice; [7]", "value": "non-significantly reduced"},
      {"measurement": "corticosterone-induced hyperlipidaemia (plasma triglycerides, total cholesterol)", "setting": "male C57Bl/6J mice; [7]", "value": "seemed to modestly reduce"},
      {"measurement": "corticosterone-induced immune suppression (total white blood cells, lymphocytes, monocytes, eosinophils)", "setting": "male C57Bl/6J mice; [7]", "value": "fully prevented"},
      {"measurement": "free fatty acid levels", "setting": "male C57Bl/6J mice; [7]", "value": "did not affect"},
      {"measurement": "glucose levels", "setting": "male C57Bl/6J mice; [7]", "value": "improved"},
      {"measurement": "lean mass (reduced by corticosterone)", "setting": "male C57Bl/6J mice; [7]", "value": "not altered"},
      {"measurement": "corticosterone-induced hyperinsulinemia", "setting": "male C57Bl/6J mice; corticosterone pellet 5 days, 60 mg/kg/day oral gavage, 6-h fast", "value": "fully prevented"},
      {"measurement": "basal mRNA expression of some GR target genes (Gilz in liver, muscle and BAT; Mt2a in BAT)", "setting": "[2]; 60 mg/kg/day oral gavage 5 days, sham pellet", "value": "reduced"},
      {"measurement": "corticosterone-induced expression of GR target genes (Fkbp5, Gilz, Sgk1, Mt2a)", "setting": "[2]; corticosterone pellet 5 days, 60 mg/kg/day oral gavage, liver, muscle, BAT, WAT, hippocampus", "value": "effectively prevented"},
      {"measurement": "IC50", "setting": "GR [3]", "value": 43, "unit": "nM"},
      {"measurement": "activity at the progesterone receptor", "setting": "progesterone receptor", "value": "antagonizes"},
      {"measurement": "partial agonism at GR", "setting": "GR [4]", "value": "partial agonistic properties"},
      {"measurement": "endogenous corticosterone levels", "setting": "HPA-axis activity", "value": "suppressed"},
      {"measurement": "activity at the androgen receptor", "setting": "androgen receptor", "value": "antagonizes"}
    ]},
    {"compound": "C[C@@H]1C[C@H]2[C@@H]3CCC4=CC(=O)C=C[C@]4(C)[C@@]3(F)[C@@H](O)C[C@]2(C)[C@@]1(O)C(=O)CO", "note": "[dexamethasone]", "values": [
      {"measurement": "interactions at a number of motifs (dexamethasone-exclusive cluster)", "setting": "[1]", "value": "induced substantial interactions"},
      {"measurement": "ligand-induced interaction at the majority of coregulator motifs", "setting": "[1]; [6]", "value": "induced motif binding"}
    ]},
    {"compound": "C[C@]12C[C@H](O)[C@H]3[C@@H](CCC4=CC(=O)CC[C@@]43C)[C@@H]1CC[C@@H]2C(=O)CO", "note": "[corticosterone]", "values": [
      {"measurement": "expression of GR target genes Fkbp5, Gilz, Sgk1, Mt2a after corticosterone injection", "setting": "[5]", "value": "upregulated expression of all GR target genes"},
      {"measurement": "fat mass under subchronic corticosterone exposure", "setting": "male C57Bl/6J mice; [8]", "value": "increase"},
      {"measurement": "lean mass under subchronic corticosterone exposure", "setting": "male C57Bl/6J mice; [8]", "value": "reduced"},
      {"measurement": "plasma insulin under subchronic corticosterone exposure", "setting": "male C57Bl/6J mice; [8]", "value": "induced hyperinsulinemia"},
      {"measurement": "spleen weight under subchronic corticosterone exposure", "setting": "male C57Bl/6J mice; [8]", "value": "decreased"},
      {"measurement": "Eosinophil count", "setting": "male C57Bl/6J mice; corticosterone pellet 5 days, no antagonist", "value": "Not detected"}
    ]},
    {"compound": "C[C@]12CCC(=O)C=C1CC[C@@H]1[C@@H]2[C@@H](O)C[C@@]2(C)[C@H]1CC[C@]2(O)C(=O)CO", "note": "[cortisol]", "values": [
      {"measurement": "interactions at a number of motifs (dexamethasone-exclusive cluster)", "setting": "[1]", "value": "without effect"},
      {"measurement": "ligand-induced interaction at the majority of coregulator motifs", "setting": "[1]; [6]", "value": "induced motif binding"}
    ]}
  ]
}
